Reference: the NIST ThermoML archive (doi:10.1007/s10765-005-8592-5)
Where “and” joins values, the source holds several entries; their conditions need not be identical. Equal entries are not always repeated.

What was measured:
[1] = xn = mol fraction of the nth substance listed; details: Fluid (supercritical or subcritical phases), isochoric method
[2] = molar heat capacity at constant volume; xn = mol fraction of the nth substance listed; details: Fluid (supercritical or subcritical phases), Vacuum adiabatic calorimetry

CC(C)C [2-methylpropane] + CCC
Details	mass density, [1] [kg/m3]	molar heat capacity at constant volume, [2]
270.15 K, 4579 kPa, x2 = 0.498	566.8	82.79 J/K/mol
275.15 K, 8198 kPa, x2 = 0.498	566.3	81.61 J/K/mol
280.15 K, 11759 kPa, x2 = 0.498	565.9	82.79 J/K/mol
285.15 K, 15256 kPa, x2 = 0.498	565.5	84.27 J/K/mol
290.15 K, 18687 kPa, x2 = 0.498	565.1	85.14 J/K/mol
295.15 K, 22038 kPa, x2 = 0.498	564.8	85.81 J/K/mol
300.15 K, 25302 kPa, x2 = 0.498	564.5	87.7 J/K/mol
305.15 K, 28471 kPa, x2 = 0.498	564.2	89.64 J/K/mol
315.15 K, 9748 kPa, x2 = 0.498	524.3	89.39 J/K/mol
320.15 K, 12415 kPa, x2 = 0.498	523.9	91.23 J/K/mol
325.15 K, 15069 kPa, x2 = 0.498	523.6	92.35 J/K/mol
330.15 K, 17709 kPa, x2 = 0.498	523.3	91.89 J/K/mol
335.15 K, 20336 kPa, x2 = 0.498	523	93.07 J/K/mol
340.15 K, 22950 kPa, x2 = 0.498	522.8	92.66 J/K/mol
345.15 K, 25550 kPa, x2 = 0.498	522.5	92.4 J/K/mol
350.15 K, 7962 kPa, x2 = 0.498	471.7	93.89 J/K/mol
350.15 K, 28136 kPa, x2 = 0.498	522.3	93.22 J/K/mol
355.15 K, 9814 kPa, x2 = 0.498	471.4	93.73 J/K/mol
360.15 K, 11663 kPa, x2 = 0.498	471.2	93.73 J/K/mol
365.15 K, 13509 kPa, x2 = 0.498	470.9	93.22 J/K/mol
370.15 K, 15351 kPa, x2 = 0.498	470.7	94.71 J/K/mol
375.15 K, 17187 kPa, x2 = 0.498	470.5	94.19 J/K/mol
380.15 K, 19017 kPa, x2 = 0.498	470.2	95.06 J/K/mol
380.15 K, 20994 kPa, x2 = 0.756	458.6	88.38 J/K/mol
385.15 K, 4713 kPa, x2 = 0.756	279.9	150.35 J/K/mol
385.15 K, 22824 kPa, x2 = 0.756	458.4	90.71 J/K/mol
390.15 K, 5229 kPa, x2 = 0.756	279.8	127.92 J/K/mol
390.15 K, 22647 kPa, x2 = 0.498	469.8	97.67 J/K/mol
395.15 K, 4489 kPa, x2 = 0.498	274.1	183.94 J/K/mol
395.15 K, 5756 kPa, x2 = 0.756	279.7	116.61 J/K/mol
400.15 K, 4949 kPa, x2 = 0.498	274	160.01 J/K/mol
400.15 K, 6290 kPa, x2 = 0.756	279.6	105.82 J/K/mol
405.15 K, 5419 kPa, x2 = 0.498	273.9	144.56 J/K/mol
405.15 K, 6830 kPa, x2 = 0.756	279.6	101.36 J/K/mol
410.15 K, 5896 kPa, x2 = 0.498	273.8	131.68 J/K/mol
410.15 K, 7375 kPa, x2 = 0.756	279.5	96.37 J/K/mol
415.15 K, 4254 kPa, x2 = 0	273.8	230.8 J/K/mol and 222.08 J/K/mol
415.15 K, 6379 kPa, x2 = 0.498	273.7	124.31 J/K/mol
415.15 K, 7922 kPa, x2 = 0.756	279.4	93.23 J/K/mol
420.15 K, 4664 kPa, x2 = 0	273.7	202.67 J/K/mol
420.15 K, 4665 kPa, x2 = 0	273.8	202.96 J/K/mol
420.15 K, 6865 kPa, x2 = 0.498	273.6	115.11 J/K/mol
420.15 K, 8472 kPa, x2 = 0.756	279.3	90.85 J/K/mol
425.15 K, 5082 kPa, x2 = 0	273.7	186.05 J/K/mol
425.15 K, 5083 kPa, x2 = 0	273.7	187.1 J/K/mol
425.15 K, 7354 kPa, x2 = 0.498	273.6	109.18 J/K/mol
